US5085995A, “Method for producing saffron stigma-like tissue and method for producing useful components from saffron stigma-like tissue” (Somar Corporation, priority 1989, dated 1992)

Legend:
[1] = tested on: stigma of saffran; assay: Tissue culture of saffron stigma with alanine; visual rating of stigma-like tissue (Example 7); format: cell-based; details: Ki 2 ppm, Linsmaier-Skoog medium, scale 0-10
Source text: (§1) The relative amount of the stigma-like tissue was visually determined and rated according to an 11-part divided scale, taking an amount corresponding to the amount of naturally-occurring three stigmata containing saffron pigment as 10, nil as 0, and equally dividing the interval therebetween.
(§2) The relative color density of the stigma-like tissue was visually determined, and rated according to an 11-part divided scale, taking a density corresponding to the density of a naturally-occurring stigma containing saffron pigment as 10 and colorlessness as 0, and equally dividing the interval therebetween.
(§3) Guaran powder was then added to the medium in a concentration of 0.2% by weight. The medium was sterilized at 120° C. for 20 minutes in an autoclave. The sterilized medium was aloquated into sterile plastic plates having a diameter of 55 mm, followed by cooling to solidify.
(§4) A bud of a saffron flower before opening was harvested, sterilized by soaking in a 0.5 vol% sodium hypochlorite aqueous solution for 10 minutes, and washed with water. The ovary portion of the bud was taken out and cut to pieces of about 8 mm. Each cut piece was seeded on each of the above-prepared solid media.
(§5) After 7 weeks of culturing, the tissue cultures were visually observed and evaluated in the same manner as in Example 1.
(§6) A saffron ovary was cultured in the same manner as in Example 3, except for replacing the MS medium with a Linsmaier-Skoog medium to which Ki, NAA and alanine were added in the concentrations shown in Table 11.
The procedure of Example 4 was repeated except for replacing the ovary with a stigma of saffran.

[2] = tested on: undifferentiated callus of saffron bulb; details: undifferentiated callus culture of saffron bulb; symposium 1987; cited from earlier work
[3] = tested on: corolla tube of a saffron; assay: Tissue culture of saffron corolla tube with alanine; visual rating of stigma-like tissue (Example 5); format: cell-based; details: Ki 2 ppm, Linsmaier-Skoog medium, scale 0-10
Source text: as §1, §2, §3, §4, §5, §6
The procedure of Example 4 was repeated except for replacing the ovary with a corolla tube of a saffron.

[4] = tested on: style of saffron; assay: Tissue culture of saffron style with alanine; visual rating of stigma-like tissue (Example 6); format: cell-based; details: Ki 2 ppm, Linsmaier-Skoog medium, scale 0-10
Source text: as §1, §2, §3, §4, §5, §6
The procedure of Example 4 was repeated except for replacing the overy with a style of saffron.

[5] = tested on: female organ and/or corolla tube of saffron; assay: Tissue culture of female organ and/or corolla tube of saffron in the presence of alanine; format: cell-based; details: compared with cultures in the absence of alanine
Source text: In this embodiment, a female organ and/or a corolla tube of a saffron flower is tissue-cultured in a medium containing a plant hormone and alanine in a bright or dark room.
Female organs and/or corolla tubes to be cultured are harvested from saffron flowers before opening, i.e., flowers in the bud and subjected to tissue culture in the manner as in the first embodiment by using a medium containing alanine to produce and proliferate the stigma-like tissue. When using female organs and/or corolla tubes harvested after flower opening, the amount of the stigma-like tissue produced tends to be reduced.
In cases where female organs and/or corolla tubes are cultured in the second embodiment, the culture medium should further contain alanine to accelerate the production of the stigma-like tissue. Alanine is preferably added to a medium in concentrations of from about 0.005 to 10g/l, more preferably from 0.1 to 10g/l. The alanine to be added may be any of D- or L-optical isomers and a racemate.
Tissue culture according to the present invention can be performed either by static culture using a solid medium or by shake culture using a liquid medium. The solid medium includes a medium containing about 0.8% by weight of agar and a Murashige-Skoog medium containing 0.2% by weight of guaran. The culturing may be in either a bright room or a dark room. […]

[6] = tested on: saffron ovary; assay: Tissue culture of saffron ovary in MS medium with alanine; visual rating of stigma-like tissue (Example 3); format: cell-based; details: BA 10 ppm, 7 weeks, scale 0-10
Source text: as §1, §2, §3, §4
The ovary was subjected to static culture at 25° C. in a dark room. Production of a stigma-like tissue was recognized in the cultures in about 4 weeks at the soonest. In 7 weeks, the stigma-like tissue grew and assumed a red color, indicating considerable production of the saffron pigment.
as §5

## C[C@H](N)C(=O)O (racemic) [Alanine, alanine]
[1]; alanine 0.1 g/l, NAA 0.1 ppm
  Relative Color Density of Stigma-Like Tissue Containing Saffron Pigment: 6
  Relative Production of Stigma-Like Tissue Containing Saffron Pigment: 3
[1]; alanine 0.1 g/l, NAA 1.0 ppm
  Relative Color Density of Stigma-Like Tissue Containing Saffron Pigment: 8
  Relative Production of Stigma-Like Tissue Containing Saffron Pigment: 4
[1]; alanine 1.0 g/l, NAA 0.1 ppm
  Relative Color Density of Stigma-Like Tissue Containing Saffron Pigment: 8
  Relative Production of Stigma-Like Tissue Containing Saffron Pigment: 4
[1]; alanine 1.0 g/l, NAA 1.0 ppm
  Relative Color Density of Stigma-Like Tissue Containing Saffron Pigment: 8
  Relative Production of Stigma-Like Tissue Containing Saffron Pigment: 4
[1]; alanine 5.0 g/l, NAA 0.1 ppm
  Relative Color Density of Stigma-Like Tissue Containing Saffron Pigment: 7
  Relative Production of Stigma-Like Tissue Containing Saffron Pigment: 4
[1]; alanine 5.0 g/l, NAA 1.0 ppm
  Relative Color Density of Stigma-Like Tissue Containing Saffron Pigment: 7
  Relative Production of Stigma-Like Tissue Containing Saffron Pigment: 4
[2]
  effect of addition of alanine to the medium: discharge of a red substance into the medium
[3]; alanine 0.01 g/l, NAA 0.1 ppm
  Relative Color Density of Stigma-Like Tissue Containing Saffron Pigment: 6
  Relative Production of Stigma-Like Tissue Containing Saffron Pigment: 4
[3]; alanine 0.01 g/l, NAA 1.0 ppm
  Relative Color Density of Stigma-Like Tissue Containing Saffron Pigment: 6
  Relative Production of Stigma-Like Tissue Containing Saffron Pigment: 4
[3]; alanine 0.1 g/l, NAA 0.1 ppm
  Relative Color Density of Stigma-Like Tissue Containing Saffron Pigment: 7
  Relative Production of Stigma-Like Tissue Containing Saffron Pigment: 5
[3]; alanine 0.1 g/l, NAA 1.0 ppm
  Relative Color Density of Stigma-Like Tissue Containing Saffron Pigment: 7
  Relative Production of Stigma-Like Tissue Containing Saffron Pigment: 5
[3]; alanine 1.0 g/l, NAA 0.1 ppm
  Relative Color Density of Stigma-Like Tissue Containing Saffron Pigment: 7
  Relative Production of Stigma-Like Tissue Containing Saffron Pigment: 6
[3]; alanine 1.0 g/l, NAA 1.0 ppm
  Relative Color Density of Stigma-Like Tissue Containing Saffron Pigment: 7
  Relative Production of Stigma-Like Tissue Containing Saffron Pigment: 6
[3]; alanine 5.0 g/l, NAA 0.1 ppm
  Relative Color Density of Stigma-Like Tissue Containing Saffron Pigment: 7
  Relative Production of Stigma-Like Tissue Containing Saffron Pigment: 6
[3]; alanine 5.0 g/l, NAA 1.0 ppm
  Relative Color Density of Stigma-Like Tissue Containing Saffron Pigment: 7
  Relative Production of Stigma-Like Tissue Containing Saffron Pigment: 6
[4]; alanine 0.1 g/l, NAA 0.1 ppm
  Relative Density of Stigma-Like Tissue Containing Saffron Pigment: 6
  Relative Production of Stigma-Like Tissue Containing Saffron Pigment: 4
[4]; alanine 0.1 g/l, NAA 1.0 ppm
  Relative Density of Stigma-Like Tissue Containing Saffron Pigment: 7
  Relative Production of Stigma-Like Tissue Containing Saffron Pigment: 5
[4]; alanine 1.0 g/l, NAA 0.1 ppm
  Relative Density of Stigma-Like Tissue Containing Saffron Pigment: 7
  Relative Production of Stigma-Like Tissue Containing Saffron Pigment: 5
[4]; alanine 1.0 g/l, NAA 1.0 ppm
  Relative Density of Stigma-Like Tissue Containing Saffron Pigment: 7
  Relative Production of Stigma-Like Tissue Containing Saffron Pigment: 6
[4]; alanine 5.0 g/l, NAA 0.1 ppm
  Relative Density of Stigma-Like Tissue Containing Saffron Pigment: 7
  Relative Production of Stigma-Like Tissue Containing Saffron Pigment: 5
[4]; alanine 5.0 g/l, NAA 1.0 ppm
  Relative Density of Stigma-Like Tissue Containing Saffron Pigment: 8
  Relative Production of Stigma-Like Tissue Containing Saffron Pigment: 6
[5]
  quantities of stigma-like tissue and the pigment: larger quantities of stigma-like tissue and the pigment
[6]; alanine 0.005 g/l, NAA 0.1 ppm
  Relative Color Density of Stigma-Like Tissue Containing Saffron Pigment: 8
  Relative Production of Stigma-Like Tissue Containing Saffron Pigment: 4
[6]; alanine 0.005 g/l, NAA 1.0 ppm
  Relative Color Density of Stigma-Like Tissue Containing Saffron Pigment: 8
  Relative Production of Stigma-Like Tissue Containing Saffron Pigment: 4
[6]; alanine 0.01 g/l, NAA 0.1 ppm
  Relative Color Density of Stigma-Like Tissue Containing Saffron Pigment: 8
  Relative Production of Stigma-Like Tissue Containing Saffron Pigment: 5
[6]; alanine 0.01 g/l, NAA 1.0 ppm
  Relative Color Density of Stigma-Like Tissue Containing Saffron Pigment: 8
  Relative Production of Stigma-Like Tissue Containing Saffron Pigment: 5
[6]; alanine 0.1 g/l, NAA 0.1 ppm
  Relative Color Density of Stigma-Like Tissue Containing Saffron Pigment: 9
  Relative Production of Stigma-Like Tissue Containing Saffron Pigment: 5
[6]; alanine 0.1 g/l, NAA 1.0 ppm
  Relative Color Density of Stigma-Like Tissue Containing Saffron Pigment: 9
  Relative Production of Stigma-Like Tissue Containing Saffron Pigment: 6
[6]; alanine 1.0 g/l, NAA 0.1 ppm
  Relative Color Density of Stigma-Like Tissue Containing Saffron Pigment: 9
  Relative Production of Stigma-Like Tissue Containing Saffron Pigment: 7
[6]; alanine 1.0 g/l, NAA 1.0 ppm
  Relative Color Density of Stigma-Like Tissue Containing Saffron Pigment: 9
  Relative Production of Stigma-Like Tissue Containing Saffron Pigment: 8
[6]; alanine 5.0 g/l, NAA 0.1 ppm
  Relative Color Density of Stigma-Like Tissue Containing Saffron Pigment: 9
  Relative Production of Stigma-Like Tissue Containing Saffron Pigment: 6
[6]; alanine 5.0 g/l, NAA 1.0 ppm
  Relative Color Density of Stigma-Like Tissue Containing Saffron Pigment: 8
  Relative Production of Stigma-Like Tissue Containing Saffron Pigment: 6
[6]; alanine 10.0 g/l, NAA 0.1 ppm
  Relative Color Density of Stigma-Like Tissue Containing Saffron Pigment: 8
  Relative Production of Stigma-Like Tissue Containing Saffron Pigment: 5
[6]; alanine 10.0 g/l, NAA 1.0 ppm
  Relative Color Density of Stigma-Like Tissue Containing Saffron Pigment: 8
  Relative Production of Stigma-Like Tissue Containing Saffron Pigment: 5
[6]; alanine 20.0 g/l, NAA 0.1 ppm
  Relative Color Density of Stigma-Like Tissue Containing Saffron Pigment: 8
  Relative Production of Stigma-Like Tissue Containing Saffron Pigment: 3
[6]; alanine 20.0 g/l, NAA 1.0 ppm
  Relative Color Density of Stigma-Like Tissue Containing Saffron Pigment: 7
  Relative Production of Stigma-Like Tissue Containing Saffron Pigment: 4
